Measurements reported in US11026940B2, “Compositions for the mobilization, homing, expansion and differentiation of stem cells and methods of using the same” (Ampio Pharmaceuticals, Inc., priority 2013, dated 2021).
Several values for one entry are separate records, joined by “and”; a condition that tells them apart may be missing. Equal entries are not always repeated.

Columns and labels:
Assay type in all cases: cell-based, human
SOX9 = experiment: Stem cell chondrogenesis, real time PCR gene expression: SOX9; settings: Day 14; for regulation, SOX9 / Mean regulation, SOX9: fold regulation vs saline; for regulation, SOX9 / ΔCp, SOX9 / 2^-ΔΔCp vs saline, SOX9 / ΔΔCp vs saline, SOX9: single replicate well; for Mean regulation, SOX9 / Mean ΔCp, SOX9: triplicate wells; for ΔCp, SOX9: human bone marrow MSC, chondrogenic medium + TGF beta 3; for ΔCp, SOX9 / 2^-ΔΔCp vs saline, SOX9 / ΔΔCp vs saline, SOX9 / Mean ΔCp, SOX9: vs Actin
Protocol: The treatment protocol included expanding 5 HUXMA stem cells in 182 cm^2 flasks containing 40 […] to 80-90% confluence. Cells were trypsinized from the flasks and a 1.0×10^7 cell suspension of HUXMA stem cells was warmed in Cyagen Chondrogenic Differentiation medium. 20 μl of warmed cell suspension was spotted in the middle of each well of a 24-well tissue culture plate (200,000 cells per spot), and incubated at 37° C. and 5% CO2 for one hour. […] Medium exchanges were performed every 3-4 days by aspirating the medium from the wells and replacing with fresh chondrogenic medium, diluted stocks, and TGF beta 3, as described above. […] Medium from the wells was removed and saved for further protein analysis. Qiagen RNeasy plus lysis buffer (with 2mercaptoethanol) was added to each well and gently shaken for 10 minutes. The lysed cell suspensions from each well were transferred to Qiashredder columns and spun at 14,000 rpm for 2 minutes. RNA isolation proceeded by RNeasyTM plus manufacturer's protocol. RNA was eluted from the Qiagen columns using 25 μl RNase free water. cDNA synthesis and real time PCR was conducted as follows. First strand synthesis of cDNA from all samples was performed in 20 μl total volume using 10 μl isolated RNA. All cDNA reactions were then diluted with 30 μl nuclease free water. Real time PCR was then performed using 5 μl diluted cDNA, Roche Syber green master mix, and Qiagen RT^2 gPCRTM primer pairs in 20 μl total reaction volume.

TIMP1 = experiment: Stem cell chondrogenesis, real time PCR gene expression: TIMP1; settings: Day 22; for Cp TIMP1 / 2-^ΔΔCp vs saline / Mean regulation / regulation: TIMP1; for Mean regulation / regulation: vs saline; for Mean ΔCp / ΔCp: TIMP1 vs Actin
Protocol: (§1) • Stem Cells: Bone marrow derived human mesenchymal stem cells: Passage 5 Bone marrow derived human mesenchymal stem cells (HUXMA-01001, Cyagen Biosciences, Sunnyvale Calif.) • Mesenchymal Stem Cell Chondrogenic Differentiation medium (GUXMX-90041, Cyagen Biosciences, Sunnyvale Calif.) • TheraPEAK MSCGM chemically defined Stem cell medium (190632 Lonza) • 1 mM Dexamethasone acetate and mifepristone in absolute ethanol (Sigma) • Saline or 0.9% Sodium chloride for injection ZR Flush (Excelsior Medical, Neptune N.J.) • Sterile filtered 0.6 mM sodium caprylate in saline (sigma) • Sterile filtered 3 mM NAT in saline (sigma); To prepare, heat at 60° C. for 30 minutes then sonicate for 5 minutes. • Sterile filtered 10 mM DADKP in saline • 0.2 μM syringe filters • Hepes buffered saline, Trypsin/EDTA, Trypsin neutralizing solution (Lonza reagent pack) • 182 cm2 tissue culture flasks • pipettes and sterile tips • Tissue culture hood, humidified CO2 incubator, water or bead bath • 24 well tissue culture plates • Qiagen RNeasy plus spin columns (Qiagen 74134) • Qiagen RT2 qPCR primer pairs for Collagen 2A1, MMP13, TIMP1, Aggrecan, GAPDH, and Actin B • Roche Sybr green I master mix and Invitrogen Superscript VILO master mix. • Roche 480 lightcycler
(§2) The following stock drug treatment solutions were prepared in saline for injection and warmed to 37° C. in bath: • 4 μM dexamethasone • 4 μM mifepristone • 3 mM NAT • 0.6 mM caprylate • 80 μM DADKP • Mix of 3 mM NAT, 0.6 mM caprylate, 80 μM DADKP (“Ampion” mix)
(§3) Cyagen Chondrogenic Differentiation medium was prepared by manufacturer protocols but excluding dexamethasone and TGF beta 3 supplements, and warmed to 37° C. in bath.
(§4) The treatment protocol included expanding 5 HUXMA stem cells in 182 cm^2 flasks containing 40 mls TheraPEAK™ MSCGM to 80-90% confluence. Cells were trypsinized from the flasks and a 1.0×10^7 cell suspension of HUXMA stem cells was warmed in Cyagen Chondrogenic Differentiation medium. 20 μl of warmed cell suspension was spotted in the middle of each well of a 24-well tissue culture plate (200,000 cells per spot), and incubated at 37° C. and 5% CO2 for one hour.
(§5) The plates were removed from the incubator and an additional 720 μl chondrogenic medium was added to each well. 250 μl saline, or drug solutions were added to the appropriate wells in triplicate (bringing the final drug dilution to one-quarter of the stock drug treatment solution concentrations). 10 μl of TGF beta 3 solution (supplied by Cyagen) was added to each well, and the plates were returned to the incubator.
(§6) RNA isolation and analysis was conducted for all plates as follows at days 7, 14, and 22 post treatment (with the described medium exchanges). […] Qiagen RNeasy plus lysis buffer (with 2mercaptoethanol) was added to each well and gently shaken for 10 minutes. The lysed cell suspensions from each well were transferred to Qiashredder columns and spun at 14,000 rpm for 2 minutes. RNA isolation proceeded by RNeasy™ plus manufacturer's protocol. RNA was eluted from the Qiagen columns using 25 μl RNase free water.
(§7) cDNA synthesis and real time PCR was conducted as follows. First strand synthesis of cDNA from all samples was performed in 20 μl total volume using 10 μl isolated RNA. All cDNA reactions were then diluted with 30 μl nuclease free water. Real time PCR was then performed using 5 μl diluted cDNA, Roche Syber green master mix, and Qiagen RT^2 gPCR™ primer pairs in 20 μl total reaction volume. Relative gene expression was determined by delta deta Ct method.

Collagen 2A1 = experiment: Stem cell chondrogenesis, real time PCR gene expression: Collagen 2A1; settings: for Cp Coll / Mean regulation: Collagen 2A1; for Cp Coll / Mean regulation / Mean ΔCp / ΔCp: Day 22; for Mean regulation: vs saline; for Mean ΔCp / ΔCp: Collagen 2A1 vs GAPDH; for regulation, Collagen 2A1 / Mean regulation, Collagen 2A1: fold regulation vs saline; for regulation, Collagen 2A1 / ΔCp, Collagen 2A1 / 2^-ΔΔCp vs saline, Collagen 2A1 / ΔΔCp vs saline, Collagen 2A1: single replicate well; for Mean regulation, Collagen 2A1 / Mean ΔCp, Collagen 2A1: triplicate wells; for ΔCp, Collagen 2A1: human bone marrow MSC, chondrogenic medium + TGF beta 3; for ΔCp, Collagen 2A1 / 2^-ΔΔCp vs saline, Collagen 2A1 / ΔΔCp vs saline, Collagen 2A1 / Mean ΔCp, Collagen 2A1: vs Actin
Protocol: as §1, §2, §3, §4, §5, §6, §7

Aggrecan = experiment: Stem cell chondrogenesis, real time PCR gene expression: Aggrecan; settings: Day 22; for Mean ΔCp / ΔCp: Aggrecan vs Actin; for Cp Agg / Mean regulation: Aggrecan; for Mean regulation: vs saline
Protocol: as §1, §2, §3, §4, §5, §6, §7

MMP13 = experiment: Stem cell chondrogenesis, real time PCR gene expression: MMP13; settings: for regulation, MMP13 / Mean regulation, MMP13 / ΔCp, MMP13 / 2^-ΔΔCp vs saline, MMP13 / ΔΔCp vs saline, MMP13 / Mean ΔCp, MMP13: Day 7; for regulation, MMP13 / Mean regulation, MMP13: fold regulation vs saline; for regulation, MMP13 / ΔCp, MMP13 / 2^-ΔΔCp vs saline, MMP13 / ΔΔCp vs saline, MMP13: single replicate well; for Mean regulation, MMP13 / Mean ΔCp, MMP13: triplicate wells; for ΔCp, MMP13: human bone marrow MSC, chondrogenic medium + TGF beta 3; for ΔCp, MMP13 / 2^-ΔΔCp vs saline, MMP13 / ΔΔCp vs saline, MMP13 / Mean ΔCp, MMP13: vs Actin; for Cp, MMP13 / ΔΔCp vs saline / 2^-ΔΔCp vs saline / Mean regulation / Mean ΔCp / ΔCp: Day 22; for Cp, MMP13 / ΔΔCp vs saline / 2^-ΔΔCp vs saline / Mean regulation: MMP13; for Mean regulation: vs saline; for Mean ΔCp / ΔCp: MMP13 vs GAPDH

## CC#C[C@]1(O)CC[C@H]2[C@@H]3CCC4=CC(=O)CCC4=C3[C@@H](c3ccc(N(C)C)cc3)C[C@@]21C [Mifepristone, mifepristone]
SOX9
  regulation, SOX9: 1.24 and 1.17 and 1.16
  Mean regulation, SOX9: 1.19
  ΔCp, SOX9: 6.87 and 6.95 and 6.96
  2^-ΔΔCp vs saline, SOX9: 1.2397 and 1.1728 and 1.1647
  ΔΔCp vs saline, SOX9: −0.31 and −0.23 and −0.22
  Mean ΔCp, SOX9: 6.927
TIMP1; Table 12
  Cp TIMP1: 19.69 and 19.8 and 19.76
  Mean regulation: −1.38
  Mean ΔCp: 4.227
  ΔCp: 4.01 and 4.38 and 4.29
TIMP1; Table 16
  2-^ΔΔCp vs saline: 0.6958 and 0.8448 and 0.6537
  Cp TIMP1: 19.76 and 19.69 and 19.8
  Mean ΔCp: 4.227
  ΔCp: 4.29 and 4.01 and 4.38
Collagen 2A1; Table 12
  Cp Coll: 25.99 and 27.6 and 26.84
  Mean regulation: 16.82
  Mean ΔCp: 9.22
  ΔCp: 8.52 and 10.14 and 9
Collagen 2A1; Table 16
  Cp Coll: 25.99 and 27.6 and 26.84
  Mean regulation: 16.82
  Mean ΔCp: 9.22
  ΔCp: 8.52 and 10.14 and 9
Collagen 2A1; Day 7
  regulation, Collagen 2A1: −1.12 and −3.11 and −1.23
  Mean regulation, Collagen 2A1: −1.82
  ΔCp, Collagen 2A1: 6.9 and 8.37 and 7.03
  2^-ΔΔCp vs saline, Collagen 2A1: 0.8909 and 0.3216 and 0.8141
  ΔΔCp vs saline, Collagen 2A1: 0.167 and 1.637 and 0.297
  Mean ΔCp, Collagen 2A1: 7.433
Collagen 2A1; Day 14
  regulation, Collagen 2A1: 1.21 and 1.07 and 1.57
  Mean regulation, Collagen 2A1: 1.28
  ΔCp, Collagen 2A1: 10.78 and 10.96 and 10.41
  2^-ΔΔCp vs saline, Collagen 2A1: 1.2114 and 1.0693 and 1.5655
  ΔΔCp vs saline, Collagen 2A1: −0.28 and −0.1 and −0.65
  Mean ΔCp, Collagen 2A1: 10.72
Aggrecan; Table 12
  Mean ΔCp: 9.247
  ΔCp: 10.29 and 8.98 and 8.47
  Cp Agg: 25.97 and 24.4 and 23.94
  Mean regulation: 1.55
Aggrecan; Table 16
  Mean ΔCp: 9.247
  ΔCp: 10.29 and 8.98 and 8.47
  Cp Agg: 25.97 and 24.4 and 23.94
  Mean regulation: 1.55
MMP13
  regulation, MMP13: −1.49 and −1.34
  Mean regulation, MMP13: −2.47
  ΔCp, MMP13: 5.21 and 6.83 and 5.06
  2^-ΔΔCp vs saline, MMP13: 0.6721 and 0.2186 and 0.7457
  ΔΔCp vs saline, MMP13: 0.573 and 2.193 and 0.423
  Mean ΔCp, MMP13: 5.7
MMP13; Table 12
  Cp, MMP13: 20.98 and 21.32 and 21.37
  ΔΔCp vs saline: 0.517 and 0.867 and 0.537
  Mean regulation: −1.57
  Mean ΔCp: 3.633
  ΔCp: 3.51 and 3.86 and 3.53
MMP13; Table 16
  2^-ΔΔCp vs saline: 0.699 and 0.5484 and 0.6894
  Cp, MMP13: 20.98 and 21.32 and 21.37
  ΔΔCp vs saline: 0.517 and 0.867 and 0.537
  Mean regulation: −1.57
  Mean ΔCp: 3.633
  ΔCp: 3.51 and 3.86 and 3.53

## CC(=O)N[C@@H](Cc1c[nH]c2ccccc12)C(=O)O [NAT, N-acetyl-tryptophan]
SOX9
  regulation, SOX9: −2.30 and 2.11 and 2.04
  Mean regulation, SOX9: 0.62
  ΔCp, SOX9: 8.38 and 6.1 and 6.15
  2^-ΔΔCp vs saline, SOX9: 0.4353 and 2.114 and 2.042
  ΔΔCp vs saline, SOX9: 1.2 and −1.08 and −1.03
  Mean ΔCp, SOX9: 6.877
TIMP1; Table 12
  Cp TIMP1: 20.59 and 21.28 and 20.57
  Mean regulation: 1.18
  regulation: 1.29 and 1.12 and 1.11
  Mean ΔCp: 3.537
  ΔCp: 3.4 and 3.6 and 3.61
TIMP1; Table 16
  2-^ΔΔCp vs saline: 1.2894 and 1.1225 and 1.1147
  Cp TIMP1: 20.59 and 21.28 and 20.57
  regulation: 1.29 and 1.12 and 1.11
  Mean ΔCp: 3.537
  ΔCp: 3.4 and 3.6 and 3.61
Collagen 2A1; Table 12
  Cp Coll: 24.2 and 23.63 and 24.67
  Mean regulation: 262.94
  Mean ΔCp: 5.207
  ΔCp: 4.75 and 4.87 and 6
Collagen 2A1; Table 16
  Cp Coll: 24.2 and 23.63 and 24.67
  Mean regulation: 262.94
  Mean ΔCp: 5.207
  ΔCp: 4.75 and 4.87 and 6
Collagen 2A1; Day 7
  regulation, Collagen 2A1: −1.40 and 1.01 and −1.43
  Mean regulation, Collagen 2A1: −0.61
  ΔCp, Collagen 2A1: 7.22 and 6.72 and 7.25
  2^-ΔΔCp vs saline, Collagen 2A1: 0.7137 and 1.0093 and 0.699
  ΔΔCp vs saline, Collagen 2A1: 0.487 and −0.01 and 0.517
  Mean ΔCp, Collagen 2A1: 7.063
Collagen 2A1; Day 14
  regulation, Collagen 2A1: −3.42 and 7.09 and 7.76
  Mean regulation, Collagen 2A1: 3.81
  ΔCp, Collagen 2A1: 12.83 and 8.23 and 8.1
  2^-ΔΔCp vs saline, Collagen 2A1: 0.2925 and 7.0943 and 7.7633
  ΔΔCp vs saline, Collagen 2A1: 1.773 and −2.83 and −2.96
  Mean ΔCp, Collagen 2A1: 9.72
Aggrecan; Table 12
  Mean ΔCp: 7.1
  ΔCp: 8.24 and 5.62 and 7.44
  Cp Agg: 25.43 and 23.3 and 24.4
  Mean regulation: 11.66
Aggrecan; Table 16
  Mean ΔCp: 7.1
  ΔCp: 8.24 and 5.62 and 7.44
  Cp Agg: 25.43 and 23.3 and 24.4
  Mean regulation: 11.66
MMP13
  regulation, MMP13: −1.43 and −1.81 and −2.45
  Mean regulation, MMP13: −1.89
  ΔCp, MMP13: 5.15 and 5.49 and 5.93
  2^-ΔΔCp vs saline, MMP13: 0.7006 and 0.5535 and 0.408
  ΔΔCp vs saline, MMP13: 0.513 and 0.853 and 1.293
  Mean ΔCp, MMP13: 5.523
MMP13; Table 12
  Cp, MMP13: 22.68 and 21.71 and 21.65
  Mean regulation: 0.29
  Mean ΔCp: 3.053
  ΔCp: 3.23 and 2.95 and 2.98
MMP13; Table 16
  2^-ΔΔCp vs saline: 0.8487 and 1.0305 and 1.0093
  Cp, MMP13: 22.68 and 21.71 and 21.65
  Mean regulation: 0.29
  Mean ΔCp: 3.053
  ΔCp: 3.23 and 2.95 and 2.98
